Values after ≈ are worked out from the molar mass of the structure shown. Like-named read-outs stand apart in the source and are kept apart here.
Legend:
[1] = tested on: C. albicans (ATCC 90028); experiment: MIC determination using susceptibility method (broth microdilution); format: cell-based; settings: Candida albicans
Description: (§1) Minimum inhibitory concentrations (MICs) were determined by broth microdilution according to CLSI guidelines (CLSI, M100-20^1, M7-A8^2, M27-A3^3). The compounds were tested in the range from […]. Colonies were taken directly from a second-pass culture plate and prepared to a suspension equivalent to the 0.5 McFarland standard using normal saline. […] The panels were incubated at 35° C. for 16 to 20 hours before reading the MIC endpoints. The compounds of Examples 12, 29, 59, 63 and 66-71 were dissolved in DMSO to make the initial solutions of 5120 μg/ml. These solutions were diluted 1:10 in sterile water to a stock solution of 512 μg/ml. The stock solutions were further diluted into the appropriate broth medium for the sequential dilutions used in the broth microdilution panels. S. pneumoniae was tested in Mueller Hinton (MH) broth with 3% lysed horse blood and C. albicans was tested in RPMI-1640 medium. All other organisms were tested in MH broth.

[2] = tested on: E. coli (ATCC 25922); experiment: as above; format: cell-based; settings: Escherichia coli
Description: as §1

[3] = tested on: E. faecalis (ATCC 29212); experiment: as above; format: cell-based; settings: Enterococcus faecalis
Description: as §1

[4] = tested on: MRSA (IHMA #510059); experiment: as above; format: cell-based; settings: Staphylococcus aureus, read-out: MIC (μg/ml) MRSA (IHMA #510059)
Description: as §1

[5] = tested on: MSSA (IHMA #555189); experiment: as above; format: cell-based; settings: Staphylococcus aureus, read-out: MIC (μg/ml) MSSA (IHMA #555189)
Description: as §1

[6] = tested on: S. aureus ATCC 29213; experiment: as above; format: cell-based; settings: Staphylococcus aureus
Description: as §1

[7] = tested on: S. pneumoniae (ATCC 49619); experiment: as above; format: cell-based; settings: Streptococcus pneumoniae
Description: as §1

[8] = molecular target: human albumin (HSA) (Homo sapiens (Human), UniProt P02768); experiment: HSA binding analysis using a chiral HSA column; format: in vitro ADME; settings: for HSA Binding (%): AB%=[k′/(k′+1)]*100, pH 7.0; for HSA Binding (%) / Conclusion (HSA binding class): chiral HSA column; for k′: capacity factor, k′=(Tr−T0)/T0; for Tr: retention time on chiral HSA column, pH 7.0, 37° C.; for affinity in vitro to human albumin: text summary of Table 7
Source text: The test system used in this analysis was an HSA chiral column.
The relationship between the retention time (Tr) and percentage of albumin binding (AB %) depended on the dead time (TO) and the capacity factor (k′): AB%=[k′/(k′+1)]*100
HSA binding was classified as follows:
75%≦AB<90%: Moderate binding

[9] = ATCC90028, Broth microdilution, RPMI-1640 medium, read-out: MIC (μg/ml) C. albicans (ATCC 90028)
[10] = ATCC25922, Broth microdilution, MH broth, read-out: MIC (μg/ml) E. coli (ATCC 25922)
[11] = ATCC29212, Broth microdilution, MH broth, read-out: MIC (μg/ml) E. faecalis (ATCC 29212)
[12] = ATCC29213, Broth microdilution, MH broth, read-out: MIC (μg/ml) S. aureus ATCC 29213
[13] = ATCC49619, Broth microdilution, MH broth with 3% lysed horse blood, read-out: MIC (μg/ml) S. pneumoniae (ATCC 49619)
[14] = ATCC90028, read-out: MIC (μg/ml) C. albicans (ATCC 90028)
[15] = ATCC25922, read-out: MIC (μg/ml) E. coli (ATCC 25922)
[16] = ATCC29212, read-out: MIC (μg/ml) E. faecalis (ATCC 29212)
[17] = ATCC29213, read-out: MIC (μg/ml) S. aureus ATCC 29213
[18] = ATCC49619, read-out: MIC (μg/ml) S. pneumoniae (ATCC 49619)

Sequence of human albumin (HSA) (P02768 25-609): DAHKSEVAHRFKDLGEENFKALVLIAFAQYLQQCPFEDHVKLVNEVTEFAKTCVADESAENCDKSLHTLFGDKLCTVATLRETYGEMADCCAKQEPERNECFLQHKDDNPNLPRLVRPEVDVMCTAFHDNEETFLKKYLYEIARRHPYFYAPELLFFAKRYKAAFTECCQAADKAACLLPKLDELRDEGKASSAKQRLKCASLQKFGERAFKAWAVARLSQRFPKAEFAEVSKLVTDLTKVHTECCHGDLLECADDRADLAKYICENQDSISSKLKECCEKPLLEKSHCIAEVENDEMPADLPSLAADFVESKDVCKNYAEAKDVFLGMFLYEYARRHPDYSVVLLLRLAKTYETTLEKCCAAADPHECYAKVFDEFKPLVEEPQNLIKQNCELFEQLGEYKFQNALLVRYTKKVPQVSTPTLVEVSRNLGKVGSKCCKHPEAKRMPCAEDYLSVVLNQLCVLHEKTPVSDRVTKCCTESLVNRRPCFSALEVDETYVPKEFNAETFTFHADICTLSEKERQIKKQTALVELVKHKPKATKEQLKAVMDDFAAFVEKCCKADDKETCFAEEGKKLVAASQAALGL

MIC [1, 9] [µg/mL] | MIC [2, 10] [µg/mL] | MIC [3, 11] [µg/mL] | MIC ([4]; Broth microdilution, MH broth) [µg/mL] | MIC ([5]; Broth microdilution, MH broth) [µg/mL] | MIC [6, 12] [µg/mL] | MIC [7, 13] [µg/mL] | SMILES | HSA Binding (%) [8] [%] | k′ [8] | Conclusion (HSA binding class) [8] | Tr [8] [min] | affinity in vitro to human albumin [8] | MIC [1, 14] [µg/mL] | MIC [2, 15] [µg/mL] | MIC [3, 16] [µg/mL] | MIC [4] [µg/mL] | MIC [5] [µg/mL] | MIC [6, 17] [µg/mL] | MIC [7, 18] [µg/mL]
> 128 | > 128 | > 128 | 0.5 (≈ 1.4 µM) | 0.5 (≈ 1.4 µM) | 0.5 (≈ 1.4 µM) | > 128 | CCCO/N=C(\C)C1CN(C(=O)/C=C/c2cnc3c(c2)CCC(=O)N3)C1 [Example 70, 6-((E)-3-Oxo-3-(3-((E)-1-(propoxyimino)ethyl)azetidin-1-yl)prop-1-enyl)-3,4-dihydro-1,8-naphthyridin-2(1H)-one] | 36.7 | 0.580 | Low binding (AB<75%: Low binding) | 1.219 | low affinity | – | – | – | – | – | – | –
– | – | – | – | – | – | – | Cc1c(C2CN(C(=O)/C=C/c3cnc4c(c3)CCC(=O)N4)C2)oc2ccccc12 [Example 67, (E)-6-(3-(3-(3-Methylbenzofuran-2-yl)azetidin-1-yl)-3-oxoprop-1-enyl)-3,4-dihydro-1,8-naphthyridin-2(1H)-one] | 89.3 | 8.360 | Moderate | 7.229 | moderate affinity | > 128 | > 128 | > 128 | 0.06 (≈ 0.155 µM) | 0.06 (≈ 0.155 µM) | 0.06 (≈ 0.155 µM) | 128 (≈ 330 µM)
– | – | – | – | – | – | – | CCCCOC1CN(C(=O)/C=C/c2cnc3c(c2)CC2(CCN(C)CC2)C(=O)N3)C1 [Example 63, (E)-6-(3-(3-Butoxyazetidin-1-yl)-3-oxoprop-1-enyl)-1′-methyl-1H-spiro[[1,8]naphthyridine-3,4′-piperidin]-2(4H)-one] | 56.3 | 1.288 | Low binding (AB<75%: Low binding) | 1.760 | low affinity | 128 (≈ 310 µM) | 64 (≈ 155 µM) | 64 (≈ 155 µM) | 1 (≈ 2.42 µM) | 1 (≈ 2.42 µM) | 1 (≈ 2.42 µM) | 64 (≈ 155 µM)
– | – | – | – | – | – | – | Cc1c(C2CN(C(=O)/C=C/c3cnc4c(c3)CC3(CCN(C)CC3)C(=O)N4)C2)oc2ccccc12 [Example 68, (E)-1′-Methyl-6-(3-(3-(3-methylbenzofuran-2-yl)azetidin-1-yl)-3-oxoprop-1-enyl)-1H-spiro[[1,8]naphthyridine-3,4′-piperidin]-2(4H)-one] | 91.8 | 11.216 | High binding (AB≧90%: High binding) | 9.414 | high affinity | > 128 | > 128 | > 128 | 0.5 (≈ 1.06 µM) | 0.5 (≈ 1.06 µM) | 0.5 (≈ 1.06 µM) | 128 (≈ 272 µM)
– | – | – | – | – | – | – | O=C1CCc2cc(/C=C/C(=O)N3CC(OCCc4cccs4)C3)cnc2N1 [Example 29, (E)-6-(3-Oxo-3-(3-(2-(thiophen-2-yl)ethoxy)azetidin-1-yl)prop-1-enyl)-3,4-dihydro-1,8-naphthyridin-2(1H)-one] | 55.7 | 1.259 | Low binding (AB<75%: Low binding) | 1.743 | low affinity | > 128 | > 128 | > 128 | 0.5 (≈ 1.3 µM) | 0.5 (≈ 1.3 µM) | 0.5 (≈ 1.3 µM) | > 128
> 128 | > 128 | > 128 | 4 (≈ 11.2 µM) | 8 (≈ 22.4 µM) | 4 (≈ 11.2 µM) | 128 (≈ 359 µM) | CCCO/N=C(/C)C1CN(C(=O)/C=C/c2cnc3c(c2)CCC(=O)N3)C1 [Example 71, 6-((E)-3-Oxo-3-(3-((Z)-1-(propoxyimino)ethyl)azetidin-1-yl)prop-1-enyl)-3,4-dihydro-1,8-naphthyridin-2(1H)-one] | 28.8 | 0.404 | Low binding (AB<75%: Low binding) | 1.084 | low affinity | – | – | – | – | – | – | –
– | – | – | – | – | – | – | CN1CCC2(CC1)Cc1cc(/C=C/C(=O)N3CC(c4cc5ccccc5o4)C3)cnc1NC2=O [Example 69, (E)-6-(3-(3-(Benzofuran-2-yl)azetidin-1-yl)-3-oxoprop-1-en-1-yl)-1′-methyl-1H-spiro[[1,8]naphthyridine-3,4′-piperidin]-2(4H)-one] | 88.5 | 7.730 | Moderate | 6.734 | moderate affinity | > 128 | > 128 | > 128 | 1 (≈ 2.19 µM) | 1 (≈ 2.19 µM) | 1 (≈ 2.19 µM) | 128 (≈ 280 µM)
– | – | – | – | – | – | – | O=C1CCc2cc(/C=C/C(=O)N3CC(c4cc5ccccc5o4)C3)cnc2N1 [Example 59, (E)-6-(3-(3-(Benzofuran-2-yl)azetidin-1-yl)-3-oxoprop-1-enyl)-3,4-dihydro-1,8-naphthyridin-2(1H)-one] | 82.4 | 4.678 | Moderate | 4.378 | moderate affinity | 128 (≈ 343 µM) | 64 (≈ 171 µM) | 64 (≈ 171 µM) | 0.06 (≈ 0.161 µM) | 0.06 (≈ 0.161 µM) | 0.06 (≈ 0.161 µM) | 32 (≈ 85.7 µM)

From patent US8846711B2, “Heterocyclic acrylamides and their use as pharmaceuticals” (Fab Pharma S.A.S., priority 2009, dated 2014)
